Experimental data: PubChem BioAssay (NCI)
Values joined by “and” are separate entries in the source; they are usually repeats but may differ in a detail not shown here. Equal entries are not always repeated.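 Step 1: Grow cells in 96-well plates. Step 2: Expose to compound for 48 hours at 5 concentrations. Step 3: Interpolate endpoints linearly; if unreached, use highest concentration. Here, GI50 denotes the concentration required for 50% inhibition of growth. Definition used: TGI = concentration required for complete inhibition of growth.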

What was measured:
Test in all cases: NCI anticancer screen, dose series, 48 h
MCF7 breast = tested on: MCF7 breast
ACHN renal = tested on: ACHN renal
NCI/ADR-RES ovarian = tested on: NCI/ADR-RES ovarian
HOP-92 NSCLC = tested on: HOP-92 NSCLC
HCT-15 colon = tested on: HCT-15 colon
SNB-75 CNS = tested on: SNB-75 CNS
SF-268 CNS = tested on: SF-268 CNS
HS 578T breast = tested on: HS 578T breast
SR leukemia = tested on: SR leukemia
CAKI-1 renal = tested on: CAKI-1 renal
PC-3 prostate = tested on: PC-3 prostate
CCRF-CEM leukemia = tested on: CCRF-CEM leukemia
SW-620 colon = tested on: SW-620 colon
HCC-2998 colon = tested on: HCC-2998 colon
SF-295 CNS = tested on: SF-295 CNS
NCI-H522 lung = tested on: NCI-H522 lung
MDA-MB-231 breast = tested on: MDA-MB-231 breast
786-0 renal = tested on: 786-0 renal
U251 CNS = tested on: U251 CNS
HT29 colon = tested on: HT29 colon
IGROV1 ovarian = tested on: IGROV1 ovarian
HCT-116 colon = tested on: HCT-116 colon
MDA-MB-435 = tested on: MDA-MB-435
HOP-62 NSCLC = tested on: HOP-62 NSCLC
COLO 205 colon = tested on: COLO 205 colon
SK-MEL-28 melanoma = tested on: SK-MEL-28 melanoma
NCI-H23 lung = tested on: NCI-H23 lung
M14 melanoma = tested on: M14 melanoma
LOX IMVI melanoma = tested on: LOX IMVI melanoma
BT-549 breast = tested on: BT-549 breast
UACC-257 melanoma = tested on: UACC-257 melanoma
OVCAR-8 ovarian = tested on: OVCAR-8 ovarian
A549 NSCLC = tested on: A549 NSCLC
SK-OV-3 ovarian = tested on: SK-OV-3 ovarian
MALME-3M melanoma = tested on: MALME-3M melanoma
MOLT-4 leukemia = tested on: MOLT-4 leukemia
SK-MEL-5 melanoma = tested on: SK-MEL-5 melanoma
NCI-H226 lung = tested on: NCI-H226 lung
KM12 colon = tested on: KM12 colon
OVCAR-4 ovarian = tested on: OVCAR-4 ovarian
EKVX NSCLC = tested on: EKVX NSCLC
SN12C renal = tested on: SN12C renal
A498 renal = tested on: A498 renal
UO-31 renal = tested on: UO-31 renal
UACC-62 melanoma = tested on: UACC-62 melanoma
DU-145 prostate = tested on: DU-145 prostate
K-562 leukemia = tested on: K-562 leukemia
RPMI-8226 leukemia = tested on: RPMI-8226 leukemia
RXF 393 renal = tested on: RXF 393 renal
NCI-H460 lung = tested on: NCI-H460 lung
OVCAR-3 ovarian = tested on: OVCAR-3 ovarian
SF-539 CNS = tested on: SF-539 CNS
SK-MEL-2 melanoma = tested on: SK-MEL-2 melanoma
SNB-19 CNS = tested on: SNB-19 CNS
TK-10 renal = tested on: TK-10 renal
OVCAR-5 ovarian = tested on: OVCAR-5 ovarian
HL-60(TB) leukemia = tested on: HL-60(TB) leukemia
T-47D breast = tested on: T-47D breast

Compound `NC1CCC(Nc2nc(NCc3ccc(-c4ccco4)nc3)c3ncn(C4CCCC4)c3n2)CC1` (stereo not given) has a GI50 (MCF7 breast) of 26.7 nM, a TGI (MCF7 breast) of 1220 nM and a GI50 (ACHN renal) of 242 nM. It also gave a TGI (NCI/ADR-RES ovarian) of 1390 nM, a GI50 (HOP-92 NSCLC) of 27.5 nM and a TGI (HOP-92 NSCLC) of 80.3 nM. The GI50 (HCT-15 colon) was 298 nM and 1270 nM, the TGI (HCT-15 colon) was 7810 nM and the GI50 (SNB-75 CNS) was 10.1 nM. The TGI (SNB-75 CNS) was 29.9 nM, the GI50 (SF-268 CNS) was 11 nM and the TGI (SF-268 CNS) was 169 nM and 1300 nM. The GI50 (HS 578T breast) was 20.5 nM, the TGI (HS 578T breast) was 95.5 nM and 347 nM and the GI50 (SR leukemia) was 34.9 nM. The TGI (SR leukemia) was 190 nM, the GI50 (CAKI-1 renal) was 2860 nM and the TGI (CAKI-1 renal) was 12600 nM. For the same compound, the GI50 (PC-3 prostate) was 30.7 nM, the TGI (PC-3 prostate) was 206 nM and 1690 nM and the GI50 (CCRF-CEM leukemia) was 36.2 nM. The TGI (CCRF-CEM leukemia) was 1880 nM, the GI50 (SW-620 colon) was 11.7 nM and the TGI (SW-620 colon) was 11500 nM. For the same compound, the GI50 (HCC-2998 colon) was 31.6 nM, the TGI (HCC-2998 colon) was 627 nM and the GI50 (SF-295 CNS) was 75.1 nM. The GI50 (NCI-H522 lung) was 16.4 nM, the TGI (NCI-H522 lung) was 73.7 nM and the GI50 (MDA-MB-231 breast) was 13.7 nM. It also gave a GI50 (786-0 renal) of 73.2 nM, a TGI (786-0 renal) of 1800 nM and a GI50 (U251 CNS) of 34.4 nM. It also gave a TGI (U251 CNS) of 12600 nM, a GI50 (HT29 colon) of 8.01 nM and a GI50 (IGROV1 ovarian) of 35.1 nM. It also gave a TGI (IGROV1 ovarian) of 10700 nM, a GI50 (HCT-116 colon) of 32.4 nM and a TGI (HCT-116 colon) of 11100 nM. The GI50 (MDA-MB-435) was 22.5 nM, the TGI (MDA-MB-435) was 1240 nM and the GI50 (HOP-62 NSCLC) was 23.8 nM. The TGI (HOP-62 NSCLC) was 80.6 nM, the GI50 (COLO 205 colon) was 14.3 nM and the TGI (COLO 205 colon) was 31.4 nM. The GI50 (SK-MEL-28 melanoma) was 22.7 nM, the TGI (SK-MEL-28 melanoma) was 68.6 nM and the GI50 (NCI-H23 lung) was 26.4 nM. For the same compound, the TGI (NCI-H23 lung) was 95.3 nM, the GI50 (M14 melanoma) was 21.3 nM and the TGI (M14 melanoma) was 193 nM. For the same compound, the TGI (LOX IMVI melanoma) was 21900 nM, the GI50 (BT-549 breast) was 26.4 nM and the TGI (BT-549 breast) was 74.6 nM. The GI50 (UACC-257 melanoma) was 27.7 nM, the TGI (UACC-257 melanoma) was 88 nM and the GI50 (OVCAR-8 ovarian) was 43.1 nM. It also gave a GI50 (A549 NSCLC) of 27.3 nM, a TGI (A549 NSCLC) of 14400 nM and a GI50 (SK-OV-3 ovarian) of 49 nM. The TGI (SK-OV-3 ovarian) was 15600 nM, the GI50 (MALME-3M melanoma) was 35 nM and the TGI (MALME-3M melanoma) was 212 nM. It also gave a GI50 (MOLT-4 leukemia) of 22.2 nM, a GI50 (SK-MEL-5 melanoma) of 91.3 nM and a TGI (SK-MEL-5 melanoma) of 1020 nM. The GI50 (NCI-H226 lung) was 126 nM, the GI50 (KM12 colon) was 10.7 nM and the TGI (KM12 colon) was 86 nM. The GI50 (OVCAR-4 ovarian) was 30.7 nM, the GI50 (EKVX NSCLC) was 46.5 nM and the TGI (EKVX NSCLC) was 538 nM and 242 nM. The GI50 (SN12C renal) was 37.1 nM, the TGI (SN12C renal) was 11600 nM and the GI50 (A498 renal) was 31.1 nM. It also gave a TGI (A498 renal) of 94.1 nM, a GI50 (UO-31 renal) of 170 nM and a TGI (UO-31 renal) of 747 nM. The GI50 (UACC-62 melanoma) was 37.7 nM, the TGI (UACC-62 melanoma) was 223 nM and the GI50 (DU-145 prostate) was 42.6 nM. For the same compound, the TGI (DU-145 prostate) was 12200 nM, the GI50 (K-562 leukemia) was 41.7 nM and the TGI (K-562 leukemia) was 1170 nM. It also gave a GI50 (RPMI-8226 leukemia) of 11.9 nM, a TGI (RPMI-8226 leukemia) of 89.5 nM and a GI50 (RXF 393 renal) of 17.9 nM. For the same compound, the TGI (RXF 393 renal) was 40 nM, the GI50 (NCI-H460 lung) was 46.9 nM and the TGI (NCI-H460 lung) was 11300 nM. For the same compound, the GI50 (OVCAR-3 ovarian) was 27.3 nM, the TGI (OVCAR-3 ovarian) was 77.8 nM and the GI50 (SF-539 CNS) was 37.9 nM. For the same compound, the TGI (SF-539 CNS) was 204 nM, the GI50 (SK-MEL-2 melanoma) was 34 nM and the TGI (SK-MEL-2 melanoma) was 145 nM. The GI50 (SNB-19 CNS) was 27.5 nM, the TGI (SNB-19 CNS) was 12500 nM and the GI50 (TK-10 renal) was 160 nM. For the same compound, the TGI (TK-10 renal) was 12800 nM, the GI50 (OVCAR-5 ovarian) was 32.4 nM and the TGI (OVCAR-5 ovarian) was 14100 nM. The GI50 (HL-60(TB) leukemia) was 19.3 nM, the TGI (HL-60(TB) leukemia) was 72.9 nM and the GI50 (T-47D breast) was 24.9 nM.
